Assay results from the kinase profiling compilation of Christmann-Franck et al. (2016).

Legend:
Experiment in all cases: radiometric filter-binding kinase assay, Kinase HotSpot
Details in all cases: compound 0.5 µM; ATP 10 µM
[1] = target: ABL2 (human) (UniProt P42684)
[2] = target: AURKA (human) (UniProt O14965)
[3] = target: AXL (human) (UniProt P30530)
[4] = target: BLK (human) (UniProt P51451)
[5] = target: BRSK1 (human) (UniProt Q8TDC3)
[6] = target: CAMK2G (human) (UniProt Q13555)
[7] = target: CAMK4 (human) (UniProt Q16566)
[8] = target: CDK1 CCNA2 (human) (UniProt P06493+P20248)
[9] = target: CHEK2 (human) (UniProt O96017)
[10] = target: DAPK2 (human) (UniProt Q9UIK4)
[11] = target: DMPK (human) (UniProt Q09013)
[12] = target: DYRK2 (human) (UniProt Q92630)
[13] = target: EPHA1 (human) (UniProt P21709)
[14] = target: EPHA2 (human) (UniProt P29317)
[15] = target: EPHA8 (human) (UniProt P29322)
[16] = target: FGFR1 (human) (UniProt P11362)
[17] = target: FGR (human) (UniProt P09769)
[18] = target: FLT1 (human) (UniProt P17948)
[19] = target: GRK4 (human) (UniProt P32298)
[20] = target: IKBKB (human) (UniProt O14920)
[21] = target: JAK2 JH1 JH2 (human) (UniProt O60674)
[22] = target: KDR (human) (UniProt P35968)
[23] = target: KIT (human) (UniProt P10721)
[24] = target: LIMK1 (human) (UniProt P53667)
[25] = target: MAP2K1 (human) (UniProt Q02750)
[26] = target: MAPK9 (human) (UniProt P45984)
[27] = target: MATK (human) (UniProt P42679)
[28] = target: MERTK (human) (UniProt Q12866)
[29] = target: NTRK1 (human) (UniProt P04629)
[30] = target: NTRK3 (human) (UniProt Q16288)
[31] = target: PAK3 (human) (UniProt O75914)
[32] = target: PAK4 (human) (UniProt O96013)
[33] = target: PIM2 (human) (UniProt Q9P1W9)
[34] = target: PLK3 (human) (UniProt Q9H4B4)
[35] = target: PRKCG (human) (UniProt P05129)
[36] = target: PRKCI (human) (UniProt P41743)
[37] = target: PTK2 (human) (UniProt Q05397)
[38] = target: RPS6KA1 KD1 KD2 (human) (UniProt Q15418)
[39] = target: STK4 (human) (UniProt Q13043)
[40] = target: TEK (human) (UniProt Q02763)
[41] = target: WNK3 (human) (UniProt Q9BYP7)
[42] = target: YES1 (human) (UniProt P07947)

Chain of NTRK1 (human) (P04629 whole entry, looked up): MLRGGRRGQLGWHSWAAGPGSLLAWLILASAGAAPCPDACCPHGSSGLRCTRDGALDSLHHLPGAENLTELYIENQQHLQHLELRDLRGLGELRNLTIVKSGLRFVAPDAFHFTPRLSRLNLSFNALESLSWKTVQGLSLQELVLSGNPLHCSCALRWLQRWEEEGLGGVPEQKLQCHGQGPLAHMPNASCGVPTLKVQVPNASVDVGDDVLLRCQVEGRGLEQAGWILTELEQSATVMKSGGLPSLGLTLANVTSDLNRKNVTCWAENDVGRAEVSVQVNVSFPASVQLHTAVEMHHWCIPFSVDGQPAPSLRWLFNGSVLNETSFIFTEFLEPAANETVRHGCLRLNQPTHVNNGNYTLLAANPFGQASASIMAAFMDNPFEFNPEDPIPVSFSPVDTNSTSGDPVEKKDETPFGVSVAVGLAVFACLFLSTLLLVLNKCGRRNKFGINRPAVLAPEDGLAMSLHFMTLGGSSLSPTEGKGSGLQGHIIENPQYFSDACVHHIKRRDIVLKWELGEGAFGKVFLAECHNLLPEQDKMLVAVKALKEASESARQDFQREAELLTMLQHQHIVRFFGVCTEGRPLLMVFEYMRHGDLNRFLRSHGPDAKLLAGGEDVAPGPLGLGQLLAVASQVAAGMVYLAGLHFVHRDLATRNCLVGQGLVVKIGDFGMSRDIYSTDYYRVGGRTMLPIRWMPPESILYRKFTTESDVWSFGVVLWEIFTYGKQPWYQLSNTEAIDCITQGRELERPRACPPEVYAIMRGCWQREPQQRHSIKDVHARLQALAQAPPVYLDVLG
Chain of JAK2 JH1 JH2 (human) (O60674 whole entry, looked up): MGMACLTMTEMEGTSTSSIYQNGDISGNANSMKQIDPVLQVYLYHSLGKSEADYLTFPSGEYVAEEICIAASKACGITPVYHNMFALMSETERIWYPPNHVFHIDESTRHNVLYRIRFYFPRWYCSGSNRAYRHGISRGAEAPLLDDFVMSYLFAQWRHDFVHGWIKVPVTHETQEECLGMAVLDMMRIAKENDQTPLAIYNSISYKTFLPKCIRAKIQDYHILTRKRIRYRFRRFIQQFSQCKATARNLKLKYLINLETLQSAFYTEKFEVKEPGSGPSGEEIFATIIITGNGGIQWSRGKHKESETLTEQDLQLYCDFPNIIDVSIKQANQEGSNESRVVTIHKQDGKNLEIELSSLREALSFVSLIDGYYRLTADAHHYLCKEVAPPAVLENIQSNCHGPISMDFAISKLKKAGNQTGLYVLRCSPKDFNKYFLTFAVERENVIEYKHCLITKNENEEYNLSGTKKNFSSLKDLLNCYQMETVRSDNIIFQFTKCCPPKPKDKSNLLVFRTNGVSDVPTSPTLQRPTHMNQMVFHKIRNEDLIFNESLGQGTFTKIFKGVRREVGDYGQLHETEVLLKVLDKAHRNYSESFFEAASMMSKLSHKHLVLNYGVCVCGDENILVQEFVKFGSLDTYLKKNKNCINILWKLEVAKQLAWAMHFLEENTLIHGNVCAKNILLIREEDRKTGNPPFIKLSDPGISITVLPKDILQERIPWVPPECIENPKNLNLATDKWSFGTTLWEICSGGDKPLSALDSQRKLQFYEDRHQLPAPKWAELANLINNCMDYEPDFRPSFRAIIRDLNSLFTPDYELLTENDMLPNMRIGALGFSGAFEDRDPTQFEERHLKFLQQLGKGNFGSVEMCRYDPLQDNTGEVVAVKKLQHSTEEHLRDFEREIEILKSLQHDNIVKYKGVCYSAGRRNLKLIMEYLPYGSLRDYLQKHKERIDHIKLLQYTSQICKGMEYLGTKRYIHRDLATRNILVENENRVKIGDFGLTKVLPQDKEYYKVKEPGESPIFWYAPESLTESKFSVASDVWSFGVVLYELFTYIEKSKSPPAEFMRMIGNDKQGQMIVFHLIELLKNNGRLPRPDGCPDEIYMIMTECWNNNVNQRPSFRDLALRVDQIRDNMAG
Chain of AXL (human) (P30530 whole entry, looked up): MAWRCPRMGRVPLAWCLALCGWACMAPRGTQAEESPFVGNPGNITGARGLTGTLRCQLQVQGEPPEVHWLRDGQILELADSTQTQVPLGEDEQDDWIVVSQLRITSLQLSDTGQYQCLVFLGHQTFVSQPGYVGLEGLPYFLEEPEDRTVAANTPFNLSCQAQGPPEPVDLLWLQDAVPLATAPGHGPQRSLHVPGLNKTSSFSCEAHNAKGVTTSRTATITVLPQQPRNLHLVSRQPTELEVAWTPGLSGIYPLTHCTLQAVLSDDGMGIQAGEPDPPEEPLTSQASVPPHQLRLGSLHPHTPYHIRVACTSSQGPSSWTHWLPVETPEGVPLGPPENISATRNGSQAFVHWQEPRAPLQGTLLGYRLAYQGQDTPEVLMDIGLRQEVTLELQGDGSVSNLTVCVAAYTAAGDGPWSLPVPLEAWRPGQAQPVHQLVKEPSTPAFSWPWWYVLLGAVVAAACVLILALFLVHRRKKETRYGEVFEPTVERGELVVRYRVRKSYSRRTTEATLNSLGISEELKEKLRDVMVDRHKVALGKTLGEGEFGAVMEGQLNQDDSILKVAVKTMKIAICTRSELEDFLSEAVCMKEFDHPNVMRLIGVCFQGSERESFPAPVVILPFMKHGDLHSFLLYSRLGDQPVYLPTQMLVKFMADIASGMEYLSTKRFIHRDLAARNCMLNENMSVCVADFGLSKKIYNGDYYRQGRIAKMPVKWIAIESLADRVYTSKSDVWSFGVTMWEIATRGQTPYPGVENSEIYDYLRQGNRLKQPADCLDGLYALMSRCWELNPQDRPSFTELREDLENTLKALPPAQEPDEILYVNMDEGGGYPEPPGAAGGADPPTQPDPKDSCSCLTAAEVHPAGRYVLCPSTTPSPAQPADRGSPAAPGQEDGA
Chain of RPS6KA1 KD1 KD2 (human) (Q15418 whole entry, looked up): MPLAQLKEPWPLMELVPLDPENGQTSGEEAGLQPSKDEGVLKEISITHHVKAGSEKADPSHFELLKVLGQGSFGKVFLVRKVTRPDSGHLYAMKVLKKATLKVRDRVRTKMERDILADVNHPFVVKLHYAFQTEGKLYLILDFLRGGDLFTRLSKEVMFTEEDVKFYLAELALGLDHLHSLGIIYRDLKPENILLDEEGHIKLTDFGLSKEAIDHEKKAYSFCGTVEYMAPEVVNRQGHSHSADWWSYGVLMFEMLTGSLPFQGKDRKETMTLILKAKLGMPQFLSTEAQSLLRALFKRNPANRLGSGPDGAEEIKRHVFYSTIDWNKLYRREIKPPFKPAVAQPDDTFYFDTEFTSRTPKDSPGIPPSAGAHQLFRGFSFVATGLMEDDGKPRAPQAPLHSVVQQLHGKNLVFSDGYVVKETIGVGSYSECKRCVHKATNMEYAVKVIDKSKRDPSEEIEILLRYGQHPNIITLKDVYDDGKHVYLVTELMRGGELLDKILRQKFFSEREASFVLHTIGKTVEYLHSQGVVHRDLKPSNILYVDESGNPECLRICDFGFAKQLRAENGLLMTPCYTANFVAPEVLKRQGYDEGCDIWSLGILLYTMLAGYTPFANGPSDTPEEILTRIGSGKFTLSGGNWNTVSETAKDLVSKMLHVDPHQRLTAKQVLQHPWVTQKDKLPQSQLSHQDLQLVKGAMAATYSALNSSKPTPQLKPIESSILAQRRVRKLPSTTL
Chain of BLK (human) (P51451 whole entry, looked up): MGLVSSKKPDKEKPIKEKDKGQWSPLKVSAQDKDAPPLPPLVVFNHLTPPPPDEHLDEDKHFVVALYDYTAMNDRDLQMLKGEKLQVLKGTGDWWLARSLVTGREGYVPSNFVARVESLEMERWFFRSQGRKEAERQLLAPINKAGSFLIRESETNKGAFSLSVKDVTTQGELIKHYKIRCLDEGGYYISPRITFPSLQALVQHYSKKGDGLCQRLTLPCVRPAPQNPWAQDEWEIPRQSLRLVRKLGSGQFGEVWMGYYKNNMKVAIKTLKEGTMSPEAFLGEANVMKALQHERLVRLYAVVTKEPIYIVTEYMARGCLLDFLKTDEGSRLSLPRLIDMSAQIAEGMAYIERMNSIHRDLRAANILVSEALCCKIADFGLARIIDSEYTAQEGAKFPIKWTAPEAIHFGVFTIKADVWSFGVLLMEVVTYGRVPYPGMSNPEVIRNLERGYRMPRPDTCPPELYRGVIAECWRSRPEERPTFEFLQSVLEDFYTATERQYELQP
Chain of PIM2 (human) (Q9P1W9 whole entry, looked up): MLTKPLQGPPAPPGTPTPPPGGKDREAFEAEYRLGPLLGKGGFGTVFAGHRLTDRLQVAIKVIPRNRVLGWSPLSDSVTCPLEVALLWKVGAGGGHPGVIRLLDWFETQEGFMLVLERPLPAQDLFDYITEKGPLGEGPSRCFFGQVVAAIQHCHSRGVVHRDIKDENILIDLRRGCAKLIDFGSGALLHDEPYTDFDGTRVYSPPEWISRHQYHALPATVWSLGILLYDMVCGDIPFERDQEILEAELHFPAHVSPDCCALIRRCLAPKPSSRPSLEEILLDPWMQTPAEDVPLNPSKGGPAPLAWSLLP

`O=c1cc(N2CCNCC2)oc2c(-c3ccccc3)cccc12` showed a residual activity [1] of 99.5%, a residual activity [2] of 105% and a residual activity [3] of 117%. For the same compound, the residual activity [4] was 122%, the residual activity [5] was 95.3% and the residual activity [6] was 102%. For the same compound, the residual activity [7] was 104%, the residual activity [8] was 84.8% and the residual activity [9] was 96.6%. It also gave a residual activity [10] of 94%, a residual activity [11] of 96.2% and a residual activity [12] of 96.8%. For the same compound, the residual activity [13] was 112%, the residual activity [14] was 108% and the residual activity [15] was 98.1%. For the same compound, the residual activity [16] was 110%, the residual activity [17] was 99.9% and the residual activity [18] was 86.6%. It also gave a residual activity [19] of 106%, a residual activity [20] of 103% and a residual activity [21] of 104%. The residual activity [22] was 99.8%, the residual activity [23] was 101% and the residual activity [24] was 108%. It also gave a residual activity [25] of 103%, a residual activity [26] of 90.4% and a residual activity [27] of 84.5%. For the same compound, the residual activity [28] was 98.3%, the residual activity [29] was 96.4% and the residual activity [30] was 99.8%. The residual activity [31] was 99.8%, the residual activity [32] was 81.1% and the residual activity [33] was 121%. For the same compound, the residual activity [34] was 104%, the residual activity [35] was 96.1% and the residual activity [36] was 105%. The residual activity [37] was 99%, the residual activity [38] was 104% and the residual activity [39] was 88.7%. For the same compound, the residual activity [40] was 95%, the residual activity [41] was 93.4% and the residual activity [42] was 96.4%.

Work on `CC(C)(C)c1nc2c3ccc(F)cc3c3c(=O)[nH]ccc3c2[nH]1` yielded a residual activity [1] of 90.3%, a residual activity [2] of 22.3% and a residual activity [3] of 81.9%. For the same compound, the residual activity [4] was 93.5%, the residual activity [5] was 15.4% and the residual activity [6] was 72.8%. For the same compound, the residual activity [7] was 81.8%, the residual activity [8] was 89.4% and the residual activity [9] was 0.717%. For the same compound, the residual activity [10] was 18%, the residual activity [11] was 105% and the residual activity [12] was 62.5%. For the same compound, the residual activity [13] was 80.5%, the residual activity [14] was 98.5% and the residual activity [15] was 105%. It also gave a residual activity [16] of 75.8%, a residual activity [17] of 76.9% and a residual activity [18] of 92.3%. The residual activity [19] was 74.2%, the residual activity [20] was 52.1% and the residual activity [21] was 1.37%. The residual activity [22] was 103%, the residual activity [23] was 96.1% and the residual activity [24] was 73.7%. It also gave a residual activity [25] of 94.9%, a residual activity [26] of 31.1% and a residual activity [27] of 102%. It also gave a residual activity [28] of 79.4%, a residual activity [29] of 48.7% and a residual activity [30] of 6.81%. It also gave a residual activity [31] of 90.1%, a residual activity [32] of 105% and a residual activity [33] of 90.8%. It also gave a residual activity [34] of 11%, a residual activity [35] of 79.9% and a residual activity [36] of 96%. It also gave a residual activity [37] of 35.3%, a residual activity [38] of 38.6% and a residual activity [39] of 6.84%. For the same compound, the residual activity [40] was 101%, the residual activity [41] was 90% and the residual activity [42] was 76.1%.

Compound `O=C(Nc1ccc(Cl)cc1)c1ccccc1NCc1ccncc1` has a residual activity [1] of 93.4%, a residual activity [2] of 84.4% and a residual activity [3] of 98.1%. It also gave a residual activity [4] of 102%, a residual activity [5] of 94% and a residual activity [6] of 89.2%. It also gave a residual activity [7] of 101%, a residual activity [8] of 91.8% and a residual activity [9] of 94.5%. For the same compound, the residual activity [10] was 98.4%, the residual activity [11] was 103% and the residual activity [12] was 96%. It also gave a residual activity [13] of 97%, a residual activity [14] of 101% and a residual activity [15] of 87.6%. The residual activity [16] was 83.7%, the residual activity [17] was 83.8% and the residual activity [18] was 24.8%. It also gave a residual activity [19] of 96.8%, a residual activity [20] of 99.3% and a residual activity [21] of 96.5%. For the same compound, the residual activity [22] was 28.2%, the residual activity [23] was 33.6% and the residual activity [24] was 83.4%. For the same compound, the residual activity [25] was 96.8%, the residual activity [26] was 102% and the residual activity [27] was 99.3%. It also gave a residual activity [28] of 79%, a residual activity [29] of 95.5% and a residual activity [30] of 97%. The residual activity [31] was 95.5%, the residual activity [32] was 90.6% and the residual activity [33] was 99.5%. For the same compound, the residual activity [34] was 98.5%, the residual activity [35] was 102% and the residual activity [36] was 98.7%. For the same compound, the residual activity [37] was 95.7%, the residual activity [38] was 92% and the residual activity [39] was 98.7%. It also gave a residual activity [40] of 92.4%, a residual activity [41] of 92.9% and a residual activity [42] of 95.3%.

With `Nc1n[nH]c2nnc(-c3c(-c4ccccc4)nn4ccccc34)cc12` the residual activity [1] was 57.5%, the residual activity [2] was 101% and the residual activity [3] was 99.1%. For the same compound, the residual activity [4] was 98.1%, the residual activity [5] was 98.6% and the residual activity [6] was 96.7%. It also gave a residual activity [7] of 94.2%, a residual activity [8] of 101% and a residual activity [9] of 97%. It also gave a residual activity [10] of 103%, a residual activity [11] of 103% and a residual activity [12] of 103%. For the same compound, the residual activity [13] was 92.6%, the residual activity [14] was 98.3% and the residual activity [15] was 100%. It also gave a residual activity [16] of 94.7%, a residual activity [17] of 92.9% and a residual activity [18] of 96.7%. The residual activity [19] was 103%, the residual activity [20] was 115% and the residual activity [21] was 97.1%. It also gave a residual activity [22] of 101%, a residual activity [23] of 97.1% and a residual activity [24] of 98.2%. For the same compound, the residual activity [25] was 94.3%, the residual activity [26] was 48.4% and the residual activity [27] was 95.6%. For the same compound, the residual activity [28] was 76.4%, the residual activity [29] was 101% and the residual activity [30] was 76.6%. The residual activity [31] was 100%, the residual activity [32] was 101% and the residual activity [33] was 91.7%. For the same compound, the residual activity [34] was 100%, the residual activity [35] was 103% and the residual activity [36] was 98.3%. It also gave a residual activity [37] of 99.2%, a residual activity [38] of 95.1% and a residual activity [39] of 99.1%. For the same compound, the residual activity [40] was 96.6%, the residual activity [41] was 101% and the residual activity [42] was 91.1%.
